Laboratory results taken from ChEMBL document CHEMBL5346969 (J Med Chem, 2023).
≈ marks a conversion by molar mass, not a printed value. Calls of active or inactive are those of the source. The calls are words filed in the database; no cut-off is given here.

Tests used:
MDA-MB-231 [1] = experiment: Antiproliferative activity against human MDA-MB-231 cells assessed as inhibition of cell viability incubated for 72 hrs by MTT assay; format: functional, cell-based; conditions: MDA-MB-231, 72 h
MDA-MB-231 [2] = experiment: Induction of ferroptosis-mediated morphological changes in human MDA-MB-231 cells assessed as smaller mitochondrial volume at 20 nM incubated for 6 hrs by TEM analysis; format: functional, cell-based
[3] = Toxicity in immunodeficient BALB/c mouse xenografted with human MDA-MB-231 cells assessed as morphological changes in lung at 20 mg/kg, ip for 21 days by H and E staining based microscopy; format: organism-based; conditions: in vivo, 504 h, time 21 day
MDA-MB-231 [4] = experiment: Induction of ferroptosis in human MDA-MB-231 cells assessed as increase in intracellular lipid peroxidase by measuring increase in green fluorescence intensity at 5 to 20 nM incubated for 8 hrs by C11-BODIPY-581/591 staining based confocal laser microscopy; format: functional, cell-based; conditions: dose 5-20 nM
[5] = Metabolic stability in rat plasma at 1 uM and measured upto 24 hrs by LC-MS/MS analysis; format: ADME, cell-free
MDA-MB-231 [6] = experiment: Induction of ferroptosis in human MDA-MB-231 cells assessed as cell viability at 1 uM incubated for 72 hrs in presence of autophagy inhibitor, 3-MA by MTT assay; format: functional, cell-based
MCF-10A = experiment: Cytotoxicity against human MCF-10A cells assessed as inhibition of cell viability at 1 uM incubated for 72 hrs by MTT assay; format: toxicity, cell-based
MDA-MB-231 [7] = experiment: Induction of ferroptosis-mediated morphological changes in human MDA-MB-231 cells assessed as increased membrane density at 20 nM incubated for 6 hrs by TEM analysis; format: functional, cell-based
MDA-MB-231 [8] = experiment: Induction of ferroptosis in human MDA-MB-231 cells with assessed as decrease in GPX4 protein expression level at 5 to 20 nM incubated for 8 hrs by Western blot analysis; format: functional, cell-based; conditions: dose 5-20 nM
HepG2 = experiment: Antiproliferative activity against human HepG2 cells assessed as inhibition of cell viability at 1 uM incubated for 72 hrs by MTT assay; format: functional, cell-based
MDA-MB-231 [9] = experiment: Induction of ferroptosis in human MDA-MB-231 cells with assessed as decrease in xCT protein expression level at 5 to 20 nM incubated for 8 hrs by Western blot analysis; format: functional, cell-based; conditions: dose 5-20 nM
MDA-MB-231 [10] = experiment: Induction of ferroptosis in human MDA-MB-231 cells assessed as increase in intracellular lipid peroxidase by measuring decrease in red fluorescence intensity at 5 to 20 nM incubated for 8 hrs by C11-BODIPY-581/591 staining based confocal laser microscopy; format: functional, cell-based; conditions: dose 5-20 nM
MCF7 = experiment: Antiproliferative activity against human MCF7 cells assessed as inhibition of cell viability at 1 uM incubated for 72 hrs by MTT assay; format: functional, cell-based
MDA-MB-231 [11] = experiment: Antitumor activity against human MDA-MB-231 cells xenografted in immunodeficient BALB/c mouse assessed as inhibition of tumor cell proliferation at 20 mg/kg,ip for 21 days consecutively every day by Ki67 staining based immunohistochemical analysis; format: functional, organism-based; conditions: time 21.0 day
MDA-MB-231 [12] = experiment: Induction of ferroptosis in human MDA-MB-231 cells with assessed as decrease in FTH1 protein expression level at 5 to 20 nM incubated for 8 hrs by Western blot analysis; format: functional, cell-based; conditions: dose 5-20 nM
MDA-MB-231 [13] = experiment: Induction of ferroptosis in human MDA-MB-231 cells assessed as cell viability incubated for 72 hrs in presence of autophagy inhibitor, 3-MA by MTT assay; format: functional, cell-based; conditions: MDA-MB-231, 72 h
HT-29 = experiment: Antiproliferative activity against human HT-29 cells assessed as inhibition of cell viability at 1 uM incubated for 72 hrs by MTT assay; format: functional, cell-based
[14] = Solubility of compound at pH 7.4; format: physicochemical; conditions: buffer
[15] = Toxicity in immunodeficient BALB/c mouse assessed as change in BUN level at 20 mg/kg, ip for 14 days by biochemical analysis; format: organism-based; conditions: in vivo, 336 h, time 14 day
MDA-MB-231 [16] = experiment: Induction of ferroptosis-mediated morphological changes in human MDA-MB-231 cells assessed as broken outer membrane at 20 nM incubated for 6 hrs by TEM analysis; format: functional, cell-based
[17] = Toxicity in immunodeficient BALB/c mouse assessed as change in CK level at 20 mg/kg, ip for 14 days by biochemical analysis; format: organism-based; conditions: in vivo, 336 h, time 14 day
MDA-MB-231 [18] = experiment: Induction of ferroptosis in human MDA-MB-231 cells assessed as cell viability incubated for 72 hrs in presence of glutathione by MTT assay; format: functional, cell-based; conditions: MDA-MB-231, 72 h
[19] = Metabolic stability in human liver microsomes assessed as half life at 1 uM incubated upto 60 mins in presence of NADPH by LC-MS/MS analysis; format: ADME, Microsome
BT-549 = experiment: Antiproliferative activity against human BT-549 cells assessed as inhibition of cell viability at 1 uM incubated for 72 hrs by MTT assay; format: functional, cell-based
MDA-MB-231 [20] = experiment: Antitumor activity against human MDA-MB-231 cells xenografted in immunodeficient BALB/c mouse assessed as tumor growth inhibition at 20 mg/kg,ip for 21 days consecutively every day; format: functional; conditions: MDA-MB-231, 504 h, time 21 day, read-out: TGI
MDA-MB-231 [21] = experiment: Induction of ferroptosis-mediated morphological changes in human MDA-MB-231 cells assessed as change in nuclear morphology at 20 nM incubated for 6 hrs by TEM analysis; format: functional, cell-based
MDA-MB-231 [22] = experiment: Induction of ferroptosis in human MDA-MB-231 cells assessed as cell viability incubated for 72 hrs in presence of ferroptosis inhibitor, ferrostatin-1 by MTT assay; format: functional, cell-based; conditions: MDA-MB-231, 72 h
MDA-MB-231 [23] = experiment: Induction of ferroptosis in human MDA-MB-231 cells with assessed as change in ACSL4 protein expression level at 5 to 20 nM incubated for 8 hrs in presence of ferroptosis inhibitor, ferrostatin-1 by Western blot analysis; format: functional, cell-based; conditions: dose 5-20 nM
MDA-MB-231 [24] = experiment: Induction of ferroptosis in human MDA-MB-231 cells assessed as increase in intracellular ROS accumulation by measuring green fluorescence intensity at 20 nM incubated for 8 hrs in presence of ferroptosis inhibitor, ferrostatin-1 by DCFH-DA staining based confocal laser microscopy; format: functional, cell-based
Hep 3B2 = experiment: Antiproliferative activity against human Hep3B cells assessed as inhibition of cell viability at 1 uM incubated for 72 hrs by MTT assay; format: functional, cell-based
U-87 MG = experiment: Antiproliferative activity against human U87 cells assessed as inhibition of cell viability at 1 uM incubated for 72 hrs by MTT assay; format: functional, cell-based; conditions: U-87MG ATCC
MDA-MB-231 [25] = experiment: Induction of ferroptosis in human MDA-MB-231 cells assessed as cell viability incubated for 72 hrs in presence of necrosis inhibitor, necrostatin-1 by MTT assay; format: functional, cell-based; conditions: MDA-MB-231, 72 h
4T1 = experiment: Antiproliferative activity against mouse 4T1 cells assessed as inhibition of cell viability at 1 uM incubated for 72 hrs by MTT assay; format: functional, cell-based
MDA-MB-231 [26] = experiment: Antitumor activity against human MDA-MB-231 cells xenografted in immunodeficient BALB/c mouse assessed as tumor growth inhibition at 10 mg/kg,ip for 21 days consecutively every day; format: functional; conditions: MDA-MB-231, 504 h, time 21 day, read-out: TGI
MDA-MB-231 [27] = experiment: Induction of ferroptosis in human MDA-MB-231 cells with assessed as change in GPX4 protein expression level at 5 to 20 nM incubated for 8 hrs in presence of ferroptosis inhibitor, ferrostatin-1 by Western blot analysis; format: functional, cell-based; conditions: dose 5-20 nM
MDA-MB-231 [28] = experiment: Induction of ferroptosis in human MDA-MB-231 cells assessed as cell viability at 1 uM incubated for 72 hrs in presence of glutathione by MTT assay; format: functional, cell-based

Row | SMILES | IC50 (MDA-MB-231 [1]) | Activity (MDA-MB-231 [2]) | Activity [3] | Activity (MDA-MB-231 [4]) | Stability [5] | Activity (MDA-MB-231 [6]) | Activity (MCF-10A) | Activity (MDA-MB-231 [7]) | Activity (MDA-MB-231 [8]) | Activity (HepG2) | Activity (MDA-MB-231 [9]) | Activity (MDA-MB-231 [10]) | Activity (MCF7) | Activity (MDA-MB-231 [11]) | Activity (MDA-MB-231 [12]) | IC50 (MDA-MB-231 [13]) | Activity (HT-29) | solubility [14] | Activity [15] | Activity (MDA-MB-231 [16]) | also measured
1 | COc1cc(N(C(=O)CBr)c2ccc3c(c2)OCCO3)cc(OC)c1F | 8 nM | Active | Non-Toxic | Dose-Dependent Effect | Stable | inactive | Non-Toxic | Active | Active | inactive | inactive | Dose-Dependent Effect | inactive | Active | Active | 18 nM | inactive | 3.3 µg/mL (≈ 7.74 µM) | Toxic | Active | Activity [17]: Toxic; IC50 (MDA-MB-231 [18]): > 20000 nM; half-life at 1 µM [19]: 0.79 min; Activity (BT-549): Active; inhibition in vivo at 20 mg/kg (MDA-MB-231 [20]): 71.7%; Activity (MDA-MB-231 [21]): inactive; IC50 (MDA-MB-231 [22]): 1750 nM; Activity (MDA-MB-231 [23]): inactive; Activity (MDA-MB-231 [24]): inactive; Activity (Hep 3B2): inactive; Activity (U-87 MG): inactive; IC50 (MDA-MB-231 [25]): 25 nM; Activity (4T1): Active; inhibition in vivo at 10 mg/kg (MDA-MB-231 [26]): 47.9%; Activity (MDA-MB-231 [27]): inactive; Activity (MDA-MB-231 [28]): Active
2 | COc1cc(N(C(=O)CCl)c2ccc3c(c2)OCCO3)cc(OC)c1F | 12 nM | Active | Non-Toxic | Dose-Dependent Effect | Stable | inactive | Non-Toxic | Active | Active | inactive | inactive | Dose-Dependent Effect | Active | Active | Active | 18 nM | inactive | 3.63 µg/mL (≈ 9.51 µM) | Toxic | Active | Activity [17]: Toxic; IC50 (MDA-MB-231 [18]): > 20000 nM; half-life at 1 µM [19]: 3.34 min; Activity (BT-549): Active; inhibition in vivo at 20 mg/kg (MDA-MB-231 [20]): 81%; Activity (MDA-MB-231 [21]): inactive; IC50 (MDA-MB-231 [22]): 2570 nM; Activity (MDA-MB-231 [23]): inactive; Activity (MDA-MB-231 [24]): inactive; Activity (Hep 3B2): inactive; Activity (U-87 MG): inactive; IC50 (MDA-MB-231 [25]): 22 nM; Activity (4T1): Active; inhibition in vivo at 10 mg/kg (MDA-MB-231 [26]): 73.1%; Activity (MDA-MB-231 [27]): inactive; Activity (MDA-MB-231 [28]): Active
